Values joined by “and” are separate entries in the source; they are usually repeats but may differ in a detail not shown here. Equal values may be shown once.
Tests used:
MARK4 [1] = biological target: T1, MARK4 (Homo sapiens, UniProt Q96L34); assay: ADP-Glo biochemical assay MARK4; details: for MARK4 pIC50 / IC50: ADP-Glo assay; for IC50: read-out: MARK4 pIC50 (converted)
T1 construct: purchased MRC PPU
T1 sequence (Q96L34 1-752): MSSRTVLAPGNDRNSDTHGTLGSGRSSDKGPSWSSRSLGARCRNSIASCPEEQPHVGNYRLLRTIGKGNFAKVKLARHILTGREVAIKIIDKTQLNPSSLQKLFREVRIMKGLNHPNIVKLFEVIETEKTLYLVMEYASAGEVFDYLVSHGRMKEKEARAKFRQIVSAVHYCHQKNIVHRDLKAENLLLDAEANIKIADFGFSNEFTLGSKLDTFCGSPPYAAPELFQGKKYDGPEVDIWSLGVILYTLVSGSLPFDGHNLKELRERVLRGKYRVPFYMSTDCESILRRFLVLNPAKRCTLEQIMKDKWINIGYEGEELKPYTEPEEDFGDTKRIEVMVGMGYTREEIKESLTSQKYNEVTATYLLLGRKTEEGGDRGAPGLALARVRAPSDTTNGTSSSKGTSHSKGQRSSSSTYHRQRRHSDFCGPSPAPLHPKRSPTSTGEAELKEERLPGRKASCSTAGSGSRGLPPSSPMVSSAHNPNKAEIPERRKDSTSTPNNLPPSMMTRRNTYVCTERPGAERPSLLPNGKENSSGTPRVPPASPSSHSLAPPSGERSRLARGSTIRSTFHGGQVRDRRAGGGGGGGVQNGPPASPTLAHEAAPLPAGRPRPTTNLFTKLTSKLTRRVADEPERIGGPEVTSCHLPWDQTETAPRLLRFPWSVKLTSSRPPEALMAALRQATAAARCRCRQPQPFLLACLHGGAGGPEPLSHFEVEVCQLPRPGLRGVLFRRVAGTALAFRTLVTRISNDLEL
Method: Biological experimental procedures
ADP-Glo biochemical assays
Protein kinase activity in the presence of inhibitor compounds was determined by ADP-Glo assay (Promega), as previously described.1,2 Compounds were serialised using a Labcyte Echo 520 and transferred to 384 well plates (Greiner 784201) followed by the addition 5 µL of substrate containing peptide and ATP at Km in buffer (see Table S6). 5 µL of purified protein was added and the plate was incubated for 60 minutes at room temperature (ng/well; see Table S6). 3 µL of assay mixture was transferred using an Integra Viaflo384 into a white low volume plate (Greiner 781904) prior to the addition of 3 µL of ADP-Glo Reagent™ for a further 40 minute incubation. After incubation with 6 µL of Kinase Detection Reagent for 30 minutes, plate luminescence was read (Pherastar FSX, BMG […]
30 mM HEPES pH7.4, 3 mM MgCl2, 3 mM MnCl2, 1.2 mM DTT, 0.01% CHAPS
Table S6: Conditions for protein kinase ADP-Glo assays
ATP AT Peptide Peptide Enzyme Enzyme Assay Buffe Min.
Protein conc. P Peptide name conc. supplier amount supplier vol. r na […]
NUAK1 µM µM Sakamototide 50 µM Merck 6.7 ng PPU 10 µl A 6
A µM µM Sakamototide 100 µM Merck 1 ng PPU 10 µl B 2 […]
aMin. n: Minimum number of technical replicates per compound

MDR1 (P-gp) = assay: MDR1-MDCK permeability (bi-directional); type: in vitro ADME, canine; details: dog; for efflux ratio at 1 h, 10 µM / efflux ratio at 60 min, 10 µM: MDCK-MDR1, ratio of B-A to A-B permeabilities, read-out: MDCK ER (efflux ratio); for Papp at 60 min, 10 µM: MDR1-MDCK
Excerpt: (§1) All single point assay determinations carried out in duplicate.

Brain protein binding = type: in vitro ADME; details: mouse brain tissue, read-out: BPB Fu
Excerpt: as §1

[2] = Mouse PK cassette (5 mg/kg, I.P.); details: for Kp uu at 0.5 h: brain / plasma (unbound); for Kp at 0.5 h: brain / plasma; for AUCinf / Plasma t1/2: mouse, I.P., cassette
Method: (§8) To investigate the effect of increasing mouse microsomal stability on in vivo half-lives, 9, 10 and 24 were coadministered with 3 in a mouse PK cassette (5 mgkg^–1, I.P.) (Table 5).
ADMET and PK experimental methods
(§9) Microsomal stability: analysis was performed by Cyprotex Discovery. Briefly, test compounds in
(§10) microsomes (0.5 mg protein/mL) in the presence of NADPH (1 mM) at 37 °C. Aliquots were taken at
(§11) generic LC-MS/MS conditions for compound remaining, allowing the determination of the half-life for
(§12) MDR1-MDCK Permeability (bi-directional): was performed by Cyprotex Discovery. Briefly,
(§13) compounds were administered at 10 µM (1% DMSO final) to the apical or basolateral side of a
(§14) confluent monolayer of MDR1- MDCK cells, then incubated at 37 °C for 60 minutes before appearance
(§15) on the opposite side of the monolayer was determined LC-MS/MS. The efflux ratio (ER) is calculated
(§16) from the ratio of B-A to A-B permeabilities.
(§17) Plasma protein binding: was performed by ChemPartner Co. Ltd. Briefly, compounds in DMSO (1
(§18) µM, 0.2% DMSO final) were added to mouse plasma or brain tissue and dialysed against buffer for 5
(§19) hrs at 37 °C. The compound concentration in each of the plasma and buffer compartments was
(§20) determined by mass spectrometry and used to calculate the percentage compound bound.
(§21) Pharmacokinetic analysis: was performed by ChemPartner Co. Ltd. Male CD-1 mice (N=3 per
(§22) timepoint) were intraperitoneally dosed at 5 mg/kg, as a cassette of five compounds, formulated in 10%
(§23) DMSO, 10% Solutol HS 15, 80% (50 mM citrate buffer pH3.0) at 0.5 mg/mL. At the designated time
(§24) points a blood sample was collected from the facial vein into K2EDTA tubes, and plasma separated by
(§25) centrifugation. Mice were euthanised by CO2 inhalation and brains were dissected and homogenised.
(§26) Compound levels were quantified by LC-MS/MS and PK parameters estimated by a non-compartmental
model using WinNonlin 8.2.

CDK4/Cyclin D1 = biological target: T2, CDK4/Cyclin D1 (Homo sapiens, UniProt P11802); assay: Adapta screening assay (Thermo Fisher); type: biochemical; details: single point at 1 μM; read-out: CDK4 % Inh.
T2 construct: purchased Thermo Fisher Scientific
T2 sequence (P11802 whole entry): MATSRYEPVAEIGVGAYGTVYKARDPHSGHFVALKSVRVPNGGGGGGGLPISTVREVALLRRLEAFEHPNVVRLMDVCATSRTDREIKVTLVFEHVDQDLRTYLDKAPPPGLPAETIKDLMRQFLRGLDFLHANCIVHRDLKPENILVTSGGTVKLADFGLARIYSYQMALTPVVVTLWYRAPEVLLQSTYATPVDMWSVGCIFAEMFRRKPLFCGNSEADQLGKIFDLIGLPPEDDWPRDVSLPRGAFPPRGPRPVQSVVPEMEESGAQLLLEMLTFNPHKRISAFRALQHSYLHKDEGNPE
T2 sequence (P24385 whole entry partner): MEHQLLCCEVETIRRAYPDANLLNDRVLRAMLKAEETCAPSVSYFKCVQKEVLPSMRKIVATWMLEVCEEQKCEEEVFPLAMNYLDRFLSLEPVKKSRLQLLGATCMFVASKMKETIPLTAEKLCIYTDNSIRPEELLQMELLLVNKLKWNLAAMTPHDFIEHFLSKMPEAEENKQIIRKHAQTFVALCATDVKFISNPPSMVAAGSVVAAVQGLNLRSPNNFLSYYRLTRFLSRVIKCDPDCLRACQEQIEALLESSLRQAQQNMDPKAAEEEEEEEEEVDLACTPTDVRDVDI
Excerpt: Activity pIC50 values and standard error of the mean (SEM) were estimated using a 4-parameter fit (Dotmatics). The SEM for all reported data was 0.2 or lower. See Experimental Procedures for minimum number of replicates per compound. Each experiment included a Standard compound whose pIC50 value was compared to a quality control chart. If the Standard pIC50 value fell outside the range of pIC50 +/-3 standard deviation, then the experiment was invalidated. […]
CDK4/cyclin D1: Adapta™ screening assay was performed by Thermo Fisher Scientific. The 2X CDK4/cyclin D1 / Rb Substrate mixture is prepared in 50 mM HEPES pH 7.5, 0.01% BRIJ-35, 10 mM MnCl2, 1 mM EGTA, 2 mM DTT, 0.02% NaN3. The final 10 µL Kinase Reaction consists of 7.5 - 30 ng CDK4/cyclin D1 and 1 µM Rb Substrate in 32.5 mM HEPES pH 7.5, 0.005% BRIJ-35, 5 mM MnCl2, […]
0.5 mM EGTA, 1 mM DTT, 0.01% NaN3. […]

Plasma protein binding = type: in vitro ADME; details: mouse plasma, read-out: PPB Fu
Excerpt: as §1

MAP4K5 = MAP4K5 (Homo sapiens, UniProt Q9Y4K4); assay: Kinase panel radiometric filter binding (33P-ATP); type: biochemical; design: % activity remaining: dose or concentration left out as unconfirmed; details: for % activity remaining: MAP4K5
Chain of MAP4K5 (Q9Y4K4 whole entry, species assumed): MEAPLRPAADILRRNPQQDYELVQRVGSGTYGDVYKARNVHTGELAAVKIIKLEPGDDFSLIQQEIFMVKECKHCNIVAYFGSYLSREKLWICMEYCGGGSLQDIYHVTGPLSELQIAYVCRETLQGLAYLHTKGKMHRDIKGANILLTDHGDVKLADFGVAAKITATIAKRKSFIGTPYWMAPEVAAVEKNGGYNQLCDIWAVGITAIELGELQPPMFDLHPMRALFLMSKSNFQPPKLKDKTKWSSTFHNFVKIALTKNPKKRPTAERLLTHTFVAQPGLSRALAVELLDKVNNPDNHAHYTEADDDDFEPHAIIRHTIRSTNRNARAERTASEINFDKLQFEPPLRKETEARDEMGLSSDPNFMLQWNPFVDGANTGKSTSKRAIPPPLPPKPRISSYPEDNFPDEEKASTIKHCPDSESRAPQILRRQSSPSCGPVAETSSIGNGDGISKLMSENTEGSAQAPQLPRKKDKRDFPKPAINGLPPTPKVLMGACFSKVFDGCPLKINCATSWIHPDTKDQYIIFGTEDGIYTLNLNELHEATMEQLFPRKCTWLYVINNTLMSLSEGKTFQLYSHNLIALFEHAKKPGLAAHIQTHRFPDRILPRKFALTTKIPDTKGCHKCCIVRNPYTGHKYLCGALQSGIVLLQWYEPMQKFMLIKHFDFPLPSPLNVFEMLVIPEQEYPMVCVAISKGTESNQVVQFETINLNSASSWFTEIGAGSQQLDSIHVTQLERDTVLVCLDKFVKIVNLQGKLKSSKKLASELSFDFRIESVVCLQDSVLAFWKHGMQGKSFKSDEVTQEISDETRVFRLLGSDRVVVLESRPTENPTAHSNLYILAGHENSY
Method: (§2) Table S4: AMPKA kinase activity data (ADP-Glo assay)
(§3) Compound pIC50 (Fold selectivity
(§4) Table S5. Kinase selectivity screening for 9 and 24 at 1 µM against a general kinase panel of 140 targets
(§5) in radiometric filter binding assay using 33P-γ−ATP at the MRC PPU International Centre for Kinase
(§6) Profiling, University of Dundee. pIC50 values were determined for compounds with <20% activity
(§7) Kinase activity s.d. pIC50 activity s.d. pIC50

MARK2 = biological target: T3, MARK2 (Homo sapiens, UniProt Q7KZI7); assay: Kinase panel radiometric filter binding (33P-ATP); type: biochemical; design: % activity remaining: dose or concentration left out as unconfirmed; details: for % activity remaining: MARK2
T3 construct: purchased MRC PPU
T3 sequence (Q7KZI7 whole entry): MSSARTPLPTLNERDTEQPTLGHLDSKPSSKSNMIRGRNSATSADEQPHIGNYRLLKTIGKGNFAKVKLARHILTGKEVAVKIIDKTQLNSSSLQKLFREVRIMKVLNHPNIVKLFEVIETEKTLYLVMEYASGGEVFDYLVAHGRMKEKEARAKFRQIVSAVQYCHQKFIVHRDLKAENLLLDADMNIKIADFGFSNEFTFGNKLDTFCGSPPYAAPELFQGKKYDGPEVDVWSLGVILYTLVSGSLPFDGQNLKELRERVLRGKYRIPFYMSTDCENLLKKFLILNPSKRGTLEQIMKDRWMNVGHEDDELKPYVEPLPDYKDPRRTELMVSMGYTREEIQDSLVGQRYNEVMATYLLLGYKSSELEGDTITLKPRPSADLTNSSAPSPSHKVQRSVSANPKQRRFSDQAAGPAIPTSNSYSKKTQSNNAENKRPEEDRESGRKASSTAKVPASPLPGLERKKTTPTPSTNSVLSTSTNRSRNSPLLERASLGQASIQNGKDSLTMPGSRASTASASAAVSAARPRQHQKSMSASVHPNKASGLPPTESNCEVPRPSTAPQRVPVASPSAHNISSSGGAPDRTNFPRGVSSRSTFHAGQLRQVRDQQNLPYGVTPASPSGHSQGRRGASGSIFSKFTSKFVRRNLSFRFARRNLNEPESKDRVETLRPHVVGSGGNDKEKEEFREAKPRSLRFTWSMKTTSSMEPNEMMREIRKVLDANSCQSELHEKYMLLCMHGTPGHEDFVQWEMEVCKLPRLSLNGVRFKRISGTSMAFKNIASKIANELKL
Method: as §2, §3, §4, §5, §6, §7

MARK4 [3] = biological target: T1, MARK4; assay: Kinase panel radiometric filter binding (33P-ATP); type: biochemical; design: % activity remaining: dose or concentration left out as unconfirmed; details: for % activity remaining: MARK4
Method: as §2, §3, §4, §5, §6, §7

MST3 = MST3 (Homo sapiens, UniProt Q9Y6E0); assay: Kinase panel radiometric filter binding (33P-ATP); type: biochemical; design: % activity remaining: dose or concentration left out as unconfirmed; details: for % activity remaining: MST3
Chain of MST3 (Q9Y6E0 whole entry, species assumed): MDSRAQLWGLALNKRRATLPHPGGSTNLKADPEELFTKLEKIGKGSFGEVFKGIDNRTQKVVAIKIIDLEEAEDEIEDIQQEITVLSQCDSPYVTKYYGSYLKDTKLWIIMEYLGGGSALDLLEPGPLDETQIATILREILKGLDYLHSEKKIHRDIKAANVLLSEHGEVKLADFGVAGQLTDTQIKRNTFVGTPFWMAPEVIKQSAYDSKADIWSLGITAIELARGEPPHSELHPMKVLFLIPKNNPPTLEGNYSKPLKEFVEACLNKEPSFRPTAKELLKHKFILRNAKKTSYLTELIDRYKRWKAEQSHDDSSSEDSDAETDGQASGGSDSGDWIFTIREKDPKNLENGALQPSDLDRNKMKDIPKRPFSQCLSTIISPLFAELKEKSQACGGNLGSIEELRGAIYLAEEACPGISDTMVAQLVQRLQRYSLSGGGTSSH
Method: as §2, §3, §4, §5, §6, §7

in vivo = details: male, CD-1, mouse, ip, 5 mg/kg
Method: as §8
ADMET and PK experimental methods
as §9, §10, §11, §12, §13, §14, §15, §16, §17, §18, §19, §20, §21, §22, §23, §24, §25, §26
model using WinNonlin 8.2.

[4] = radiometric filter binding panel

Row | SMILES | MARK4 pIC50 (MARK4 [1]) | MARK4 Fold selectivity IC50/NUAK1 IC50 (MARK4 [1]) [fold] | efflux ratio at 1 h, 10 µM (MDR1 (P-gp)) | Papp at 60 min, 10 µM (MDR1 (P-gp)) [×10⁻⁶ cm/s] | fraction unbound at 5 h, 1 µM (Brain protein binding) | Kp uu at 0.5 h ([2]; male, CD-1, mouse, ip) | Kp at 0.5 h ([2]; male, CD-1, mouse, ip) | AUCinf [2] [ng·h/mL] | Plasma t1/2 [2] [min] | IC50 (MARK4 [1]) [nM] | inhibition at 1 µM (CDK4/Cyclin D1) [%] | also measured
1 | CN1CCN(c2ccc(Nc3ncc4cc(C#N)c(=O)n(C5CCCC5)c4n3)cc2)CC1 [Compound 3, Narazaciclib, reference compound] | 5.02 and 5.0 | 363 | 5.6 | 1.98 | 0.012 | 0.29 | 1.9 | 897 | 54 |  |  | concentration at 30 min ([2]; male, CD-1, mouse, brain, ip): 1160 ng/mL; concentration at 2 h ([2]; male, CD-1, mouse, brain, ip): 181 ng/mL
2 | CN1C2CC1CN(c1ccc(Nc3ncc4ccn(CC5CCCO5)c4n3)cc1)C2 (centres unmarked) [Compound 28] |  | 1175 |  |  |  |  |  |  |  | 6460 |  | 
3 | CN1C2CC1CN(c1ccc(Nc3ncc4ccn(CC5CCOCC5)c4n3)cc1)C2 [Compound 24] | 4.9 | 3981 | 71 | 1.05 | 0.09 | 0.52 | 0.9 | 365 | 42 |  | 29 | efflux ratio at 60 min, 10 µM (MDR1 (P-gp)): 70.8; fraction unbound at 5 h, 1 µM (Plasma protein binding): 0.152; % activity remaining (MAP4K5): 78%; % activity remaining (MARK2): 101%; % activity remaining (MARK4 [3]): 95%; % activity remaining (MST3): 84%; concentration at 30 min (in vivo): 220 ng/mL; concentration at 2 h (in vivo): 26.9 ng/mL
4 | CC(C)N1CCN(c2ccc(Nc3ncc4ccn(C5CCCC5)c4n3)cc2)CC1 [Compound 8] | 5.6 | 513 |  |  |  |  |  |  |  | 2340 | 90 | 
5 | CC(C)N1CCN(c2ccc(Nc3ncc4ccn(CC5CCCO5)c4n3)cc2)CC1 (centres unmarked) [Compound 27] |  | 776 |  |  | 0.039 |  |  |  |  | 2630 |  | 
6 | Cc1cc(=O)n(C2CCCC2)c2nc(Nc3ccc(N4CCN(C)CC4)cc3)ncc12 [Compound 4] | 5.4 | 871 |  |  |  |  |  |  |  |  | 98 | 
7 | CC(C)N1CCN(c2ccc(Nc3ncc4c(n3)N(C3CCCC3)C(=O)C4)cc2)CC1 [Compound 7] | 5.19 and 5.2 | 1549 |  |  |  |  |  |  |  |  | 75 | 
8 | Cc1cc(=O)n(C2CCCC2)c2nc(Nc3ccc(N4CC5CC(C4)N5C)cc3)ncc12 [Compound 9] |  |  | 4.8 | 1.01 | 0.006 | 0.4 | 0.8 | 1358 | 54 |  | 91 | fraction unbound at 5 h, 1 µM (Plasma protein binding): 0.011; % activity remaining (MAP4K5): 14%; MAP4K5 pIC50 (MAP4K5; [4]): > 7; IC50 (MAP4K5; radiometric filter binding panel, read-out: MAP4K5 pIC50 (converted)): 110 nM; % activity remaining (MARK2): 98%; inhibition at 1 µM (MARK2; at 1 μM, radiometric filter binding assay, Dundee, read-out: MARK2 single point % inhibition): 2%; % activity remaining (MARK4 [3]): 49%; inhibition at 1 µM (MARK4 [3]; at 1 μM, radiometric filter binding assay, Dundee, read-out: MARK4 single point % inhibition): 51%; % activity remaining (MST3): 17%; MST3 pIC50 (MST3; [4]): > 7; IC50 (MST3; radiometric filter binding panel, read-out: MST3 pIC50 (converted)): 112 nM; concentration at 30 min (in vivo): 573 ng/mL; concentration at 2 h (in vivo): 176 ng/mL
9 | CC(C)N1CCN(c2ccc(Nc3ncc4ccn(CC5CCOC(C)(C)C5)c4n3)cc2)CC1 (centres unmarked) [Compound 26] |  | > 4700 |  |  |  |  |  |  |  | > 25100 |  | 
10 | CN1C2CC1CN(c1ccc(Nc3ncc4cc(C#N)c(=O)n(C5CCCC5)c4n3)cc1)C2 [Compound 10] |  |  | 50 | 1.24 | 0.01 | 0.37 | 0.7 | 1131 | 66 |  | 98 | efflux ratio at 60 min, 10 µM (MDR1 (P-gp)): 49.5; fraction unbound at 5 h, 1 µM (Plasma protein binding): 0.019; concentration at 30 min (in vivo): 293 ng/mL; concentration at 2 h (in vivo): 146 ng/mL
11 | Cc1cc(=O)n(C(C)C)c2nc(Nc3ccc(N4CC5CC(C4)N5C)cc3)ncc12 [Compound 20] |  |  |  |  |  |  |  |  |  |  | 46 | 

Source: publication PMC11831560, “Development of the Pyrido[2,3-d]pyrimidin-7(8H)-one Scaffold toward Potent and Selective NUAK1 Inhibitors” (ACS Medicinal Chemistry Letters, 2025)
